Test results published in patent US9920063B2, “Melampomagnolide B derivatives” (Board of Trustees of the University of Arkansas, priority 2013, dated 2018).
Read-outs that look alike come from different tables or passages of the source.

How the values were obtained:
[1] = system: panel of 60 human cancer cell lines; test: Screen against a panel of 60 human tumor cell lines (single dose and five dose), panel and sub-panel statements; assay type: cell-based

C=C1C(=O)O[C@H]2[C@H]1CC/C(COC(=O)c1cc3ccccc3[nH]1)=C\CC[C@@]1(C)O[C@@H]21 [BS-1-28]
CC50 (SK-MEL-2): 7830 nM | Percent Growth (SK-MEL-2; SK-MEL-2, Log10 Concentration −4.0): −88% | Percent Growth (SK-MEL-2; SK-MEL-2, Log10 Concentration −5.0): −67% | Percent Growth (SK-MEL-2; SK-MEL-2, Log10 Concentration −6.0): 96% | Percent Growth (SK-MEL-2; SK-MEL-2, Log10 Concentration −7.0): 113% | Percent Growth (SK-MEL-2; SK-MEL-2, Log10 Concentration −8.0): 103% | GI50 (SK-MEL-2; SK-MEL-2, NCI five dose): 1920 nM | TGI (SK-MEL-2; SK-MEL-2, NCI five dose): 3.88E−6 | CC50 (MDA-MB-435): 5850 nM | Percent Growth (MDA-MB-435; MDA-MB-435, Log10 Concentration −4.0): −96% | Percent Growth (MDA-MB-435; MDA-MB-435, Log10 Concentration −5.0): −76% | Percent Growth (MDA-MB-435; MDA-MB-435, Log10 Concentration −6.0): 44% | Percent Growth (MDA-MB-435; MDA-MB-435, Log10 Concentration −7.0): 98% | Percent Growth (MDA-MB-435; MDA-MB-435, Log10 Concentration −8.0): 97% | GI50 (MDA-MB-435; MDA-MB-435, NCI five dose): 763 nM | TGI (MDA-MB-435; MDA-MB-435, NCI five dose): 2.28E−6 | CC50 (SK-MEL-5): 5120 nM | Percent Growth (SK-MEL-5; SK-MEL-5, Log10 Concentration −4.0): −95% | Percent Growth (SK-MEL-5; SK-MEL-5, Log10 Concentration −5.0): −98% | Percent Growth (SK-MEL-5; SK-MEL-5, Log10 Concentration −6.0): 67% | Percent Growth (SK-MEL-5; SK-MEL-5, Log10 Concentration −7.0): 92% | Percent Growth (SK-MEL-5; SK-MEL-5, Log10 Concentration −8.0): 96% | GI50 (SK-MEL-5; SK-MEL-5, NCI five dose): 1260 nM | TGI (SK-MEL-5; SK-MEL-5, NCI five dose): 2.54E−6 | CC50 (BT-549): 2640 nM | Percent Growth (BT-549; BT-549, Log10 Concentration −4.0): −99% | Percent Growth (BT-549; BT-549, Log10 Concentration −5.0): −88% | Percent Growth (BT-549; BT-549, Log10 Concentration −6.0): −22% | Percent Growth (BT-549; BT-549, Log10 Concentration −7.0): 14% | Percent Growth (BT-549; BT-549, Log10 Concentration −8.0): −30% | GI50 (BT-549; BT-549, NCI five dose): < 10 nM | GI50 (BT-549; BT-549 breast cancer cell line): < 10 nM | Growth inhibition, five dose screening ([1]; CCRF-CEM, HL-60 (TB), K-562, RPMI-8226, HOP-92, NCI-H522, HCT-116, HCT-15, SW-620, LOX IMVI, M14, MDA-MB-435, 786-0, ACHN, UO-31): potent nanomolar growth inhibition | Anticancer activity, five dose screening ([1]; melanoma, leukemia, colon, CNS, breast, ovarian, non-small cell lung, renal, and prostate cancers): remarkable anticancer activity | Outcome of initial single dose screening ([1]; single concentration 10^−5 M, more than 60% growth inhibition in at least eight cell lines of the panel): selected for five dose screening
